Reference: ChEMBL document CHEMBL5329159, “Anti-proliferative activity of nitroquinolone fused acylhydrazones as non-small cell human lung cancer agents” (RSC Med Chem, 2023)
Calls of active or inactive are those of the source. No cut-off for these calls is given here.

What was measured:
[1] = Induction of morphological changes in HEK cells assessed as cell blebbing incubated for 24 hrs by inverted light microscopic analysis; type: toxicity, cell-based; conditions: human
A549 [2] = assay: Induction of cell cycle arrest in human A549 cells assessed as accumulation of cells at S phase after 24 hrs by PI/RNase staining based flow cytometry analysis; type: functional
A549 [3] = assay: Induction of cell cycle arrest in human A549 cells assessed as accumulation of cells at G0/G1 phase after 24 hrs by PI/RNase staining based flow cytometry analysis; type: functional
A549 [4] = assay: Cytotoxicity against human A549 cells assessed as reduction in cell viability incubated for 72 hrs by MTT assay; type: functional, cell-based; conditions: A549, 72 h
HeLa = assay: Cytotoxicity against human HeLa cells assessed as reduction in cell viability incubated for 72 hrs by MTT assay; type: functional, cell-based
MCF7 = assay: Cytotoxicity against human MCF7 cells assessed as reduction in cell viability incubated for 72 hrs by MTT assay; type: functional, cell-based; conditions: MCF7, 72 h
[5] = Cytotoxicity against HEK cells assessed as reduction in cell viability upto 200 uM incubated for 72 hrs by MTT assay; type: toxicity, cell-based; conditions: human
A549 [6] = assay: Induction of morphological changes in human A549 cells assessed as membrane blebbing by inverted light microscopic analysis; type: functional, cell-based
A549 [7] = assay: Induction of cell cycle arrest in human A549 cells assessed as accumulation of cells at G2/M phase after 24 hrs by PI/RNase staining based flow cytometry analysis; type: functional
[8] = Induction of morphological changes in HEK cells assessed as cell detachment incubated for 24 hrs by inverted light microscopic analysis; type: toxicity, cell-based; conditions: human
A549 [9] = assay: Induction of morphological changes in human A549 cells assessed as formation of floating cells by inverted light microscopic analysis; type: functional, cell-based
A549 [10] = assay: Induction of nuclear fragmentation in human A549 cells incubated for 24 hrs by DAPI staining based fluorescence microscopic analysis; type: functional, cell-based
A549 [11] = assay: Induction of morphological changes in human A549 cells assessed as cell shrinkage by inverted light microscopic analysis; type: functional, cell-based
A549 [12] = assay: Induction of apoptosis in human A549 cells by AO/EtBr staining based fluorescence microscopic analysis; type: functional, cell-based
A549 [13] = assay: Induction of chromatin condensation in human A549 cells incubated for 24 hrs by DAPI staining based fluorescence microscopic analysis; type: functional, cell-based

O=C(N/N=C1\CCNc2c1cc(Cl)cc2[N+](=O)[O-])c1cccs1
Activity [1]: Non-Toxic
Activity (A549 [2]): Active
Activity (A549 [3]): Active
IC50 (A549 [4]): 17.1 µM
IC50 (HeLa): 20.1 µM
IC50 (MCF7): 19.2 µM
Activity [5]: Non-Toxic
Activity (A549 [6]): Dose-Dependent Effect
Activity (A549 [7]): Active
Activity [8]: Non-Toxic
Activity (A549 [9]): Dose-Dependent Effect
Activity (A549 [10]): Active
Activity (A549 [11]): Dose-Dependent Effect
Activity (A549 [12]): Active
Activity (A549 [13]): Active

COc1cccc2c1C(=O)c1c(O)c3c(c(O)c1C2=O)C[C@@](O)(C(=O)CO)C[C@@H]3O[C@H]1C[C@H](N)[C@H](O)[C@H](C)O1 [DOXORUBICIN]
IC50 (HeLa): 13.5 µM
IC50 (MCF7): 11.6 µM
Activity [5]: Non-Toxic

O=C(N/N=C1\CCNc2c1cccc2[N+](=O)[O-])c1cccnc1
IC50 (A549 [4]): 21.5 µM
IC50 (HeLa): 29.2 µM
IC50 (MCF7): 23.3 µM
Activity [5]: Non-Toxic

O=C(N/N=C1\CCNc2c1cccc2[N+](=O)[O-])c1ccccc1O
IC50 (A549 [4]): 15.8 µM
IC50 (HeLa): 24.5 µM
IC50 (MCF7): 20.2 µM
Activity [5]: Non-Toxic

O=C(N/N=C1\CCNc2c1cccc2[N+](=O)[O-])c1ccco1
IC50 (A549 [4]): 18.3 µM
IC50 (HeLa): 30.4 µM
IC50 (MCF7): 22.5 µM
Activity [5]: Non-Toxic

O=C(N/N=C1\CCNc2c1cc(Cl)cc2[N+](=O)[O-])c1ccco1
IC50 (A549 [4]): 24.5 µM
IC50 (HeLa): 32.5 µM
IC50 (MCF7): 25.5 µM
Activity [5]: Non-Toxic

O=C(N/N=C1\CCNc2c1cccc2[N+](=O)[O-])c1cccs1
IC50 (A549 [4]): 26.3 µM
IC50 (HeLa): 29.6 µM
IC50 (MCF7): 22.8 µM
Activity [5]: Non-Toxic

O=C(N/N=C1\CCNc2c1cc(Cl)cc2[N+](=O)[O-])c1cccnc1
IC50 (A549 [4]): 23.1 µM
IC50 (HeLa): 26.8 µM
IC50 (MCF7): 20.5 µM
Activity [5]: Non-Toxic

O=C(N/N=C1\CCNc2c1cc(Cl)cc2[N+](=O)[O-])c1ccccc1O
Activity [1]: Non-Toxic
Activity (A549 [2]): Active
Activity (A549 [3]): Active
IC50 (A549 [4]): 15.3 µM
IC50 (HeLa): 21.3 µM
IC50 (MCF7): 18.4 µM
Activity [5]: Non-Toxic
Activity (A549 [6]): Dose-Dependent Effect
Activity (A549 [7]): Active
Activity [8]: Non-Toxic
Activity (A549 [9]): Dose-Dependent Effect
Activity (A549 [10]): Active
Activity (A549 [11]): Dose-Dependent Effect
Activity (A549 [12]): Active
Activity (A549 [13]): Active
